For this assay, the target named is T1, Polyunsaturated fatty acid lipoxygenase ALOX12 (Homo sapiens, UniProt P18054).
T1 sequence (P18054 whole entry): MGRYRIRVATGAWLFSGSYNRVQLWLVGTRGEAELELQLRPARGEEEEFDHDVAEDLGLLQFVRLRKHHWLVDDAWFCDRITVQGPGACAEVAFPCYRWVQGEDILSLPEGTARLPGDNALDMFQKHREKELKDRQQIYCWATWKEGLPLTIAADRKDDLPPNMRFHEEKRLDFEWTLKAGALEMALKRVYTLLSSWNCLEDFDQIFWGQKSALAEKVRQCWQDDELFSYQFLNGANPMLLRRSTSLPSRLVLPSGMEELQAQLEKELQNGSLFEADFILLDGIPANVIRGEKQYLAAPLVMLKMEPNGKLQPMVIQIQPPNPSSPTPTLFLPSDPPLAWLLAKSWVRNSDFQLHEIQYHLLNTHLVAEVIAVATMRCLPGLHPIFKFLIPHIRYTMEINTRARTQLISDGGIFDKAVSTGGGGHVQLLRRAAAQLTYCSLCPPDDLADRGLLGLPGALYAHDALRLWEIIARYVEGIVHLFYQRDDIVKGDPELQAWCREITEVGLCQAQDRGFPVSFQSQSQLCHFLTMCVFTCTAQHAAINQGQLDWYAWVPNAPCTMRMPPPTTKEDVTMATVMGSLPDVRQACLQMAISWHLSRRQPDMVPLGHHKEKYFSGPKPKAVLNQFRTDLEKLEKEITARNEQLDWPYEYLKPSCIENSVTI
The assay is described as follows: Mixed type inhibition of human platelet 12-lipoxygenase assessed as equilibrium inhibitor constant of dissociation from enzyme by measuring 12-HpETE formation in presence of 0.01% Triton-X-100 by Dixon plot based steady-state inhibition kinetics assay.

The term Ki denotes the dissociation constant of the complex between target and ligand, obtained from inhibition or displacement. Take `CCCCCC(=O)C=CC=CC/C=C\C/C=C\CCCC(=O)O` [(5Z,8Z,11Z,13E)-15-oxoicosa-5,8,11,13-tetraenoic acid]: the inhibition constant Ki was found to be 87 nM.

(Values after BindingDB's records for doi:10.1016/j.bmc.2014.05.025 (University of California, 2014).)
